Data taken from patent US20240342186A1, “PYRIDINE DERIVATIVES WITH N-LINKED CYCLIC SUBSTITUENTS AS cGAS INHIBITORS” (Boehringer Ingelheim International GmbH, priority 2021, published 2024).
Read-outs that look alike come from different tables or passages of the source.

Tests used:
[1] = molecular target: cGAS (Homo sapiens (Human), UniProt Q8N884); experiment: Human cGAS enzyme assay (hcGAS IC50, in vitro), cGAMP formation by RapidFire MS; assay type: biochemical; settings: biochemical (in vitro) cGAS inhibition;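 also: enzyme activated by 45 bp dsDNA with GTP and ATP (30 µM each), 60 min compound pre-incubation then 90 min reaction, cGAMP relative to cyclic-di-GMP internal standard, 8-point dilutions up to 10 µM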
Sequence of cGAS (Q8N884 whole entry): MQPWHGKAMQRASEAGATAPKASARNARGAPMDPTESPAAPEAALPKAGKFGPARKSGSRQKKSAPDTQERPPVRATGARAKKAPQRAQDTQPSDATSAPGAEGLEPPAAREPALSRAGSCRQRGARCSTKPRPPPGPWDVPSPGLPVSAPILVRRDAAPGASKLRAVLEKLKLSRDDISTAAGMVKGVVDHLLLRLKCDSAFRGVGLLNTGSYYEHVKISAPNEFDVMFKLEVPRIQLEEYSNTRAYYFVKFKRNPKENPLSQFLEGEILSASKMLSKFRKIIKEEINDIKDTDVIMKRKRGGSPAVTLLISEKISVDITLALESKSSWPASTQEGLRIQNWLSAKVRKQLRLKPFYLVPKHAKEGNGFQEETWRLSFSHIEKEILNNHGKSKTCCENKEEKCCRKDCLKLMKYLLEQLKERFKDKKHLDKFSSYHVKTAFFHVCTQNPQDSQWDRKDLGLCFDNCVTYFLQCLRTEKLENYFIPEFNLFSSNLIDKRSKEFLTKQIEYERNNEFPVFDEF

[2] = tested on: cellular cGAS activity in baculovirus-stimulated THP1-Dual cells (IRF dependent Lucia luciferase reporter); experiment: Human cGAS cell assay: inhibition of IFN induction in virus-stimulated THP1 cells (THP1(vir) IC50); assay type: cell-based; settings: inhibition of IFN induction in virus-stimulated THP1 cells, read-out: THP1(vir) IC50
Excerpt: (§1) 6.2 Method: Human cGAS Cell Assay and cGAMP Stimulated Counter Cell Assay (THP1(vir) IC50 and THP1(cGAMP) IC50)
(§2) THP1-Dual™ cells (InvivoGen #thpd-nfis) expressing IRF dependent Lucia luciferase reporter were used as basis for both assays. For the detection of cellular cGAS activity cells were stimulated by a baculovirus (pFastbac-1, Invitrogen, no coding insert) infection that delivers the cGAS enzyme stimulating double-stranded DNA (measurement of THP1(vir) IC50).
(§3) For the counter assay, cells were stimulated by cGAMP (SigmaAldrich #SML1232) to activate the identical pathway independent and directly downstream of cGAS (measurement of THP1(cGAMP) IC50). Pathway activity was monitored by measuring the Lucia luciferase activity induced by either DNA stimulated cGAS enzyme activity (measurement of THP1(vir) IC50) or by cGAMP directly (measurement of THP1(cGAMP) IC50, counter assay).
(§4) Compounds were delivered in 10 mM DMSO solution, serially diluted and transferred to the 384 well assay plate (Greiner #781201) using an Echo acoustic dispenser. Typically, 8 concentrations were used with the highest concentration at 10 μM in the final assay volume followed by ˜1:5 dilution steps. DMSO concentration was set to 1% in the final assay volume. The 384 well assay plate contained 21 test compounds (column 1-22), and DMSO in column 23 and 24.
(§5) Cells, cultivated according to manufacturer conditions, were harvested by centrifugation at 300 g/10 min and were then resuspended and diluted to 1.66E5 cells/ml in fresh cell culture medium (RPMI 1640 (Gibco #A10491-01), 10% FCS (Gibco #10500), 1× GlutaMax (Gibco #35050-061), 1× Pen/Strep solution (Gibco #15140-122), 100 μg/ml Normocin (InvivoGen #ant-nr), 100 μg/ml Zeocin (InvivoGen #ant-zn), 10 μg/ml Blasticidin S (Life Technologies #A11139-03)). The baculovirus solution was then added 1:200 (have varied according to virus batch) to the cells (measurement of THP1(vir) IC50).
(§6) 30 μL of the cell/virus-mix were added to each well of the compound plate from column 1-23 via MultiDrop Combi dispenser (5000 cells/well). In column 24, 30 μl/5000 cells/well without virus were added as a low control.
(§7) The plates were then incubated for 18 h at 37° C. in a humidified incubator.
(§8) Following that, 15 μl of QuantiLuc detection reagent (InvivoGen #rep-qlcg5) were added to each well using a MultiDrop Combi. Measurement was done immediately after the addition using an EnVision reader (US-luminescence read-mode).
(§9) For data evaluation and calculation, the measurement of the low control was set as 0% control and the measurement of the high control was set as 100% control. The IC50 values were calculated using the standard 4 parameter logistic regression formula. Calculation: [y=(a−d)/(1+(x/c)^b)+d], a=low value, d=high value; x=conc M; c=IC50 M; b=slope

[3] = tested on: cGAMP-stimulated THP1-Dual cells (pathway directly downstream of cGAS); experiment: cGAMP stimulated counter cell assay: inhibition of IFN induction in cGAMP-stimulated THP1 cells (THP1(cGAMP) IC50); assay type: cell-based, human; settings: for IC50: inhibition of IFN induction in cGAMP-stimulated THP1 cells, read-out: THP1(cGAMP) IC50 (converted); for Ratio THP1(cGAMP) IC50 / THP1(vir) IC50: selectivity for cGAS inhibition
Excerpt: as §1, §2, §3, §4, §5, §6, §7, §8, §9

[4] = tested on: cellular cGAS activity in dsDNA-stimulated human whole blood; experiment: Human whole blood assay (hWB IC50): IFNα2α production after dsDNA transfection; assay type: cell-based; settings: inhibition of IFN induction in dsDNA-stimulated human whole blood
Protocol: 6.3 Method: Human Whole Blood Assay (Human WB IC50)
For the detection of cellular cGAS activity human whole blood was stimulated by transfection with double stranded DNA. Pathway activity was monitored by measuring the IFNα2α production.
Compounds were delivered as 10 mM DMSO solution and serially diluted and transferred to the 96-well cell culture plate (Corning #3595), prefilled with 20 μl OptiMEM (Gibco, #11058-021) in each well, using an Echo acoustic dispenser. Typically, 8 concentrations were used with the highest concentration at 10 µM in the final assay volume followed by ˜1:5 dilution steps. DMSO concentration was set to 0.1% in the final assay volume. The 96-well assay plate contained 10 test compounds, and DMSO in control wells.
Collection of human whole blood from 3 or more healthy donors (male or female, no medication for 7 days except contraceptive and thyroxine) as Na-Citrate blood (e.g. 3.8% in Monovettes from Sarstedt) was conducted in parallel. Whole blood was kept at room temperature for a maximum of 3 hours after collection until use in the assay.
160 μl of the whole blood samples was transferred to each well of the 96-well assay plates filled with compound/OptiMEM. All assay plates were prepared as duplicates with blood from different donors. Blood plates were kept at room temperature for 60 minutes and continuous shaking with 450 rpm, covered with the lid, but not sealed.
20 μl OptiMEM and 9.6:1 Fugene was added to all low control wells.
After covering assay plates with aera seals and the lid, blood plates were kept at room temperature for 30 minutes and continuous shaking with 450 rpm, followed by an overnight incubation of 22 h at 37° C. in the incubator, without shaking.
For the detection of IFNα-2α in human plasma, the biotinylated capture antibody (Antibody set IFNA2, Meso Scale Diagnostics #B21VH-3, including coating and capture antibody) was diluted 1:17.5 in Diluent 100 (Meso Scale Diagnostics #R^50AA-4), according to the manufacturer's directions. U-Plex MSD GOLD 96-well Small Spot Strepavidin SECTOR Plates (Meso Scale Diagnostics #L45SA-5) were coated with 25 μl diluted capture antibody. Coated plates were incubated for 60 min at room temperature under continuous shaking at 700 rpm. MSD IFNα-2α plates were washed three times with 150 μl wash buffer (1x HBSS, 0.05% Tween).
After blocking the plates with 100 μl block solution/well (1x HBSS with 0.2% Tween, 2% BSA) for 60 min at room temperature and continuous shaking at 700 rpm, plates were emptied as dry as possible by dumping just before continuing with the human plasma.
Whole Blood assay plates were centrifuged at 1600 rpm for 10 minutes. 25 μl of supernatant was transferred with a pipetting robot from each whole blood plate to the corresponding IFNα-2α plate. Plates were sealed with microplate seals and kept at room temperature again under continuous shaking at 700 rpm for two hours.
Next MSD IFNα-2α plates were washed three times with 150 μl wash buffer (1×HBSS, 0.05% Tween), before adding 25 μl MSD SULFO-TAG IFNα-2α Antibody solution (1:100 diluted in Diluent 3 (Meso Scale Diagnostics #R50AP-2) to each well of the plates.
Afterwards plates were sealed with microplate seals and kept at room temperature again under continuous shaking at 700 rpm for two hours. Finally, MSD IFNα-2α plates were washed three times with 150 μl wash buffer (1×HBSS, 0.05% Tween). 150 μl 2× Read buffer was added to each well and plates were immediately measured with the MSD Sector S600 Reader using the vendor barcode.
For data evaluation and calculation, % control calculation of each well was based on the mean of high (DNA stimulated control) and mean of low (unstimulated control) controls by using the following formula:
[counts(sample)−counts(low))/(counts(high)−counts(low))]*100
The IC50 values were calculated using the standard 4 parameter logistic regression formula. Calculation: [y=(a−d)/(1+(x/c)^b)+d], a=low value, d=high value; x=conc M; c=IC50 M; b=slope

| Molecule | IC50 [1] | IC50 ([2]; Homo sapiens, THP1-Dual) | IC50 [4] | IC50 ([3]; Homo sapiens, THP1-Dual) | Ratio THP1(cGAMP) IC50 / THP1(vir) IC50 [3] | IC50 [2] | IC50 [3] |
| --- | --- | --- | --- | --- | --- | --- | --- |
| COc1ncccc1-c1cnc(O[C@H]2C[C@@H](C(=O)O)N(c3nc(C(F)(F)F)nc4c3oc3ccccc34)C2)c(N2CCOC3(COC3)[C@@H]2C)c1 [Example 3.14] | 11 nM | 10 nM | 26 nM | 7830 nM | 822 |  |  |
| C#Cc1cnc(O[C@H]2C[C@@H](C(=O)O)N(c3nc(C(F)(F)C(F)(F)F)nc4c3oc3ccccc34)C2)c(N2CCOC3(COC3)[C@@H]2C)c1 [Example 1.17] | 17 nM | 154 nM | 305 nM | > 16600 nM | >108 |  |  |
| CNc1cccc(-c2cnc(O[C@H]3C[C@@H](C(=O)O)N(c4nc(C(F)(F)F)nc5c4oc4ccccc45)C3)c(N3CCOC4(COC4)[C@@H]3C)c2)n1 [Example 7.03] | 21 nM | 2 nM | 27 nM | > 10000 nM | 4151 |  |  |
| (2S,4S)-4-({3-[(95)-9-Methyl-2,5-dioxa-8-azaspiro[3.5]nonan-8-yl]-5-(pyrimidin-5-yl)pyridin-2-yl}oxy)-1-[4-(trifluoromethyl)-8-oxa-3,5-diazatricyclo[7.4.0.0^2,7]trideca-1(9),2(7),3,5,10,12-hexaen-6-yl]pyrrolidine-2-carboxylic acid [Example 7.01] | 14 nM |  | 50 nM |  | 1700 | 5 nM | 9260 nM |
| C[C@H]1COCCN1c1cc(Cl)cnc1O[C@H]1C[C@@H](C(=O)O)N(c2nc(C(F)F)nc3c2oc2ccccc23)C1 [Example 1.27] | 4 nM | 516 nM | 221 nM | > 16600 nM | >32 |  |  |
| C#Cc1cnc(O[C@H]2C[C@@H](C(=O)O)N(c3nc(C(C)(F)F)nc4c3oc3ccccc34)C2)c(N2CCOC3(COC3)[C@H]2C)c1 [Example 1.15] | 75 nM | 332 nM | 702 nM | 26200 nM | 79 |  |  |
| C#Cc1cnc(O[C@H]2C[C@@H](C(=O)O)N(c3nc(C(F)(F)F)nc4c3oc3ccccc34)C2)c(N2CCOC[C@@H]2C)c1 [Example 1.30] | 3 nM | 159 nM | 80 nM | 22100 nM | 139 |  |  |
| C[C@@H]1N(c2cc(-c3cccc(C(N)=O)c3)cnc2O[C@H]2C[C@@H](C(=O)O)N(c3nc(C(F)F)nc4c3oc3ccccc34)C2)CCOC12COC2 [Example 3.24] | 6 nM | 57 nM | 322 nM | 19200 nM | 336 |  |  |
| CC1(C#N)CN(c2cc(Cl)cnc2O[C@H]2C[C@@H](C(=O)O)N(c3nc(C(F)F)nc4c3oc3ccccc34)C2)CCO1 (stereo partly shown) [Example 1.02] | 4 nM | 697 nM | 3440 nM | 21900 nM | 31 |  |  |

Continued by falling IC50 [1], values first:

| IC50 [1] | IC50 ([2]; Homo sapiens, THP1-Dual) | IC50 [4] | Molecule | IC50 ([3]; Homo sapiens, THP1-Dual) | Ratio THP1(cGAMP) IC50 / THP1(vir) IC50 [3] | IC50 [2] | IC50 [3] |
| --- | --- | --- | --- | --- | --- | --- | --- |
| 10 nM | 57 nM | 22 nM | CC(=O)Nc1cc(-c2cnc(O[C@H]3C[C@@H](C(=O)O)N(c4nc(C(F)F)nc5c4oc4ccccc45)C3)c(N3CCOC4(COC4)[C@@H]3C)c2)ccn1 [Example 3.15] | 19900 nM | 348 |  |  |
| 9 nM | 25 nM | 65 nM | C[C@@H]1N(c2cc(-c3cccc(C(N)=O)c3)cnc2O[C@H]2C[C@@H](C(=O)O)N(c3nc(C(F)(F)F)nc4c3oc3ccccc34)C2)CCOC12COC2 [Example 3.13] | 8350 nM | 335 |  |  |
| 9 nM | 10 nM | 35 nM | C[C@@H]1N(c2cc(-c3cnn(C)n3)cnc2O[C@H]2C[C@@H](C(=O)O)N(c3nc(C(F)(F)F)nc4c3oc3ccccc34)C2)CCOC12COC2 [Example 7.05] | 13200 nM | 1292 |  |  |
| 6 nM | 16 nM | 38 nM | CSc1cnc(O[C@H]2C[C@@H](C(=O)O)N(c3nc(C(F)F)nc4c3oc3ccccc34)C2)c(N2CCOC3(COC3)[C@@H]2C)c1 [Example 9.01, (2S,4S)-1-[4-(difluoromethyl)-8-oxa-3,5-diazatricyclo[7.4.0.0^2,7]trideca-1(9),2(7),3,5,10,12-hexaen-6-yl]-4-({3-[(9S)-9-methyl-2,5-dioxa-8-azaspiro[3.5]nonan-8-yl]-5-(methylsulfanyl)pyridin-2-yl}oxy)pyrrolidine-2-carboxylic acid] | 19800 nM | 1254 |  |  |
| 6 nM | < 5 nM | 8 nM | CC#Cc1cnc(O[C@H]2C[C@@H](C(=O)O)N(c3nc(C(F)F)nc4c3oc3ccccc34)C2)c(N2CCOC3(COC3)[C@@H]2C)c1 [Example 6.02] | > 16000 nM | >3000 |  |  |
